In EPA's ToxValDB 9.5 (doi:10.2903/j.efsa.2009.262r):
In brackets after ≈: the same amount, converted by molar mass.

Key:
[1] = system: Apis mellifera; settings: acute, mortality
[2] = system: Bibionidae; settings: chronic/long-term; duration: 28 days
[3] = system: Colinus virginianus
[4] = system: Daphnia magna; settings: chronic/long-term; duration: 21 days
[5] = system: Oncorhynchus mykiss
[6] = system: Oryctolagus sp.; settings: reproduction developmental; reproduction
[7] = system: Rattus norvegicus; settings: for NOAEL: clinical chemistry
[8] = system: Tagia sp.
[9] = system: Aphidius rhopalosiphi; assay: LR50; higher = less toxic; settings: not reported; mortality
[10] = system: Typhlodromus pyri; assay: LR50; higher = less toxic; settings: not reported; mortality

Structure (SMILES): CCOP(=O)(SC(C)CC)SC(C)CC (configuration not stated) [Cadusafos]
- LD50 ([1]; dermal): 1.8 µg/piece
- LD50 ([1]; oral, unspecified): 2.07 µg/piece
- NOEC [2]: 32 µg/kg
- LC50 ([3]; acute, oral, diet, mortality): 10.8 mg/kg-day
- LD50 ([3]; acute, oral, mortality): 16.1 mg/kg-day
- NOEL ([3]; reproduction developmental): ≥ 1.1 mg/kg-day
- NOEC [4]: 0.231 µg/L
- LC50 ([5]; acute, duration: 96 hours, mortality): 0.13 µg/mL (≈ 0.481 µM)
- NOEC ([5]; chronic/long-term, duration: 95 days): 5.22 µg/L
- NOAEL [6]: 0.3 mg/kg-day
- LD50 ([7]; acute, oral, mortality): 37.1 mg/kg
- NOAEL ([7]; chronic, duration: 2 years, F): 0.045 mg/kg-day
- NOAEL ([7]; subchronic, duration: 90 days, oral): 0.067 mg/kg-day
- LC50 ([8]; acute, mortality): 7.2 mg/kg
- NOEC ([8]; chronic/long-term): 1.8 mg/kg
- LR50 [9]: 3.75 g/ha
- LR50 [10]: 44.4 g/ha
